What was measured:
LynD = assay: 31P NMR of ATP turnover by LynD; assay type: biochemical, Lyngbya sp. PCC 8106; details: with and without PatE′
E. coli YcaO = details: absence of substrate, ref [30]; cited from earlier work

**Q.** For `Nc1ncnc2c1ncn2[C@@H]1O[C@H](COP(=O)(O)OP(=O)(O)OP(=O)(O)O)[C@@H](O)[C@H]1O` [ATP], which “products of ATP turnover” value (LynD) is on record?
**A.** The value was “AMP (not ADP), pyrophosphate (PPi) and phosphate”.

**Q.** What about the ATP hydrolysis products (E. coli YcaO) of the same molecule?
**A.** The ATP hydrolysis products was “hydrolyzed ATP to AMP and pyrophosphate”.

Reference: PMC4512242 (Nature chemical biology, 2015)
